From US6894061B2, “Substituted dihydrophenanthridinesulfonamides” (Wyeth, priority 2002, dated 2005) come the findings set out here.

The subject of assay [1] is creatine kinase. Put plainly: Creatine kinase (CK) test procedure in Ad5-wt-ERα infected HAECT-1 cells. In kind it is cell-based, human. To be noted: Ad5-wt-ERα infected HAECT-1 cells; for Emax at 10 µM / Creatin Kinase Efficacy (%): @10 μM. The procedure: (§1) After four hours, cells were washed with EBM-BSA and incubated overnight in the same medium. Following overnight incubation, cells were washed with EBM-BSA and infected for 2 hours with 6 mL of a 1:10 dilution of Ad5-3x(NFκB).Luc virus (Adenovirus luciferase expression vector driven by 3 repeats of the MHC NFκb site 5′ to the thymidine kinase promoter) in EBM-BSA. After two hours, cells were washed and incubated at 34° C. for 1 hour. […] Control (no ER infection) cells were processed as above without Ad5-wt-hERα virus infection.
(§2) ERα infected HAECT-1 cells or control cells were thawed, diluted 42× in warm EBM-BSA, plated into 96-well plates at 0.1 mL/well and incubated for 4 hours at 34° C. Test compounds were added to the cells as 2× stocks in EBM-BSA containing 2 ng/mL IL-1β (R&D Systems) and the 96-well plates were returned to the incubator (34° C.). After 15-20 hours, 100 μL aliquots of media were removed from the cells and assayed for IL-6 content using a BioSource human IL-6 ELISA Kit. Cells were subsequently washed with 300 μL of Dulbecco's phosphate buffered saline and lysed in 50 μL of Cell Culture Lysis Reagent (Promega). Luciferase was determined on a Wallac Victor^2 Luminometer (Gaithersburg, Md.) using 10 μL of lysate and mixing with 100 μL of Promega Luciferase Assay reagent. Creatine kinase was determined from the rate of increase in A340 following addition of 100 μL of CK assay reagent (Sigma, cat. No 47-10) to the remainder of the cell lysate.
(§3) For IC50 and EC50 calculations, mean IL-6, luciferase or CK values versus log10 of the compound concentration were fitted to a four parameter logistic equation. The IC50/EC50 value, ‘Hill slope’, upper and lower limits of the curve were iteratively estimated.

In assay [2] the test system is ER/NF-κB. Put plainly: ER/NF-κB luciferase reporter in Ad5-wt-ERα infected HAECT-1 cells. The format is cell-based, human. The conditions noted are these: for Emax: read-out: ER/NFκB Efficacy (%)*; for IC50: read-out: ER/NFκB IC50. The procedure: as §1, §2, §3
For orientation: Reporter assays use an easily measured gene product as a stand-in for the process of interest.

The mark [3] stands for this setting: Homo sapiens, HAECT1, read-out: Creatin Kinase Efficacy (%).

Like-named read-outs stand apart in the source and are kept apart here.

On to `CCC1c2ccccc2-c2ccccc2N1S(=O)(=O)c1ccc(O)cc1` (stereo not drawn) [Example 18, 4-[(6-Ethylphenanthridin-5(6H)-yl)sulfonyl]phenol], for which, in assay [1] (setting [3]), the Emax at 10 µM is less than 35%. Besides, in assay [2] (Homo sapiens, HAECT1, IL-1β), the Emax was 76% and the IC50 stood at 0.529 µM.

For `CCC1c2ccccc2-c2cc(Br)ccc2N1S(=O)(=O)c1ccc(O)cc1` (stereo not drawn) [Example 19, 4-[(2-Bromo-6-ethylphenanthridin-5(6H)-yl)sulfonyl]phenol], the Emax at 10 µM in assay [1] (setting [3]) was less than 35%. Also, in assay [2] (Homo sapiens, HAECT1, IL-1β), the Emax was determined as 80% and the IC50 turned out to be 0.186 µM.

For `CCC1c2ccccc2-c2ccccc2N1S(=O)(=O)c1ccc(O)c(C)c1` (stereo not drawn) [Example 20, 4-[(6-Ethylphenanthridin-5(6H)-yl)sulfonyl]-2-methylphenol], the Emax at 10 µM in assay [1] (setting [3]) is less than 35%. Moreover, in assay [2] (Homo sapiens, HAECT1, IL-1β), the IC50 is more than 10 µM.

With `CCC1c2ccccc2-c2cc(Br)ccc2N1S(=O)(=O)c1ccc(O)c(C)c1` (stereo not drawn) [Example 21, 4-[(2-Bromo-6-ethylphenanthridin-5(6H)-yl)sulfonyl]-2-methylphenol], the Emax at 10 µM in assay [1] (setting [3]) is less than 35%. Besides, in assay [2] (Homo sapiens, HAECT1, IL-1β), the Emax stood at 85% and the IC50 was found to be 0.831 µM.

For the compound `CC1c2ccccc2-c2ccccc2N1S(=O)(=O)c1ccc(O)c(C=O)c1` (stereo not drawn) [Example 27, 2-Hydroxy-5-[(6-methylphenanthridin-5(6H)-yl)sulfonyl]b nzald hyde], the “Creatin Kinase Efficacy (%)” value in assay [1] is less than 35% @10 μM. Moreover, the IC50 in assay [2] (IL-1β) is more than 10 µM.

Regarding `CCC1c2ccccc2-c2cc(-c3ccsc3)ccc2N1S(=O)(=O)c1ccc(O)cc1` (stereo not drawn) [Example 28, 4-[(6-Ethyl-2-thin-3-ylphnanthridin-5(6H)-yl)sulfonyl]phenol], in assay [1], the “Creatin Kinase Efficacy (%)” value is less than 35% @10 μM. Also, in assay [2] (IL-1β), the “ER/NFκB Efficacy (%)*” value turned out to be 98% and the IC50 is 0.076 µM.

In the case of `CCC1c2ccccc2-c2cc(-c3cccc(OC)c3)ccc2N1S(=O)(=O)c1ccc(O)cc1` (stereo not drawn) [Example 29, 4-{[6-Ethyl-2-(3-methoxyphenyl)phenanthridin-5(6H)-yl]sulfonyl}phenol], the Emax at 10 µM in assay [1] (setting [3]) was less than 35%. In assay [2] (Homo sapiens, HAECT1, IL-1β), the Emax came to 86% and the IC50 turned out to be 0.234 µM.

Regarding `CC1c2c(O)cccc2-c2ccccc2N1S(=O)(=O)c1ccc(O)cc1` (stereo not drawn) [Example 39, 5-[(4-Hydroxyphenyl)sulfonyl]-6-methyl-5,6-dihydrophenanthridin-7-ol], in assay [1] (setting [3]), the Emax at 10 µM was less than 35%. For the same compound, the IC50 in assay [2] (Homo sapiens, HAECT1, IL-1β) is more than 10 µM.

Consider `CCC1c2cc(F)ccc2-c2cc(-c3ccsc3)ccc2N1S(=O)(=O)c1ccc(O)cc1` (stereo not drawn) [Example 52, 4-[(6-Ethyl-8-fluoro-2-thien-3-ylphenanthridin-5(6H)-yl)sulfonyl]phenol], for which the Emax at 10 µM in assay [1] (setting [3]) was less than 35%. In assay [2] (Homo sapiens, HAECT1, IL-1β), the Emax was 95% and the IC50 was found to be 0.068 µM.

As for `CCC1c2cc(F)ccc2-c2ccccc2N1S(=O)(=O)c1ccc(OC(=O)c2ccccc2)cc1` (stereo not drawn) [Example 55, 4-[(6-Ethyl-8-fluorophenanthridin-5(6H)-yl)sulfonyl]phenyl benzoate], the EC50 (as a rule, the concentration needed to bring the measured effect to its halfway point) in assay [1] (Homo sapiens, HAECT1, read-out: Creatin Kinase EC50) worked out at 0.239 µM. Further, the Emax in assay [1] (setting [3]) is 32%. In addition, the IC50 in assay [2] (Homo sapiens, HAECT1, IL-1β) is more than 10 µM.

As for `CCC1c2ccccc2-c2cc(-c3ccccc3O)ccc2N1S(=O)(=O)c1ccc(O)cc1` (stereo not drawn) [Example 63, 2-{6-Ethyl-5-[(4-hydroxyphnyl)sulfonyl]-5,6-dihydrphnanthridin-2-yl}ph nol], the “Creatin Kinase Efficacy (%)” value in assay [1] was less than 35% @10 μM. In addition, in assay [2] (IL-1β), the “ER/NFκB Efficacy (%)*” value is listed as 89% and the IC50 was determined as 0.335 µM.

On to `CCC1c2ccccc2-c2cc(/C=C/c3ccccc3)ccc2N1S(=O)(=O)c1ccc(O)cc1` (stereo not drawn) [Example 65, 4-{[6-Ethyl-2-[(E)-2-phenylethenyl]phenanthridin-5(6H)-yl]sulfonyl}phenol], for which the Emax at 10 µM in assay [1] (setting [3]) is less than 35%. For the same compound, in assay [2] (Homo sapiens, HAECT1, IL-1β), the Emax came to 93% and the IC50 was found to be 0.241 µM.

Regarding `CCC1c2ccccc2-c2cc(-c3cccc(Cl)c3)ccc2N1S(=O)(=O)c1ccc(O)cc1` (stereo not drawn) [Example 67, 4-{[2-(3-Chlorophenyl)-6-ethylphenanthridin-5(6H)-yl]sulfonyl}phenol], in assay [1] (setting [3]), the Emax at 10 µM is less than 35%. In assay [2] (Homo sapiens, HAECT1, IL-1β), the Emax stood at 79% and the IC50 stood at 0.245 µM.
